Laboratory results reported in patent US9808448B2, “Pharmaceutical compounds and use of same in cancer and tauopathies” (THE REGENTS OF THE UNIVERSITY OF MICHIGAN, priority 2013, dated 2017).
Where two headings read alike, the source gives them in different places.

Tests used:
MDA-MB-231 = assay: Cancer activity screen (MTT cell survival), MDA-MB-231; format: cell-based; settings: Homo sapiens
MCF-7 = assay: Cancer activity screen (MTT cell survival), MCF-7; format: cell-based; settings: Homo sapiens, MCF7
MEF (C57BL/6) = assay: Cell survival, MEF; format: cell-based; settings: Mus musculus, read-out: IC50/μM MEF (C57BL/6)
HeLa = assay: Cancer activity screen (MTT cell survival), HeLa; format: cell-based; settings: Homo sapiens
MCF-10A = assay: Cancer activity screen (MTT cell survival), MCF-10A; format: cell-based; settings: Homo sapiens
MDA-MB-231 cells = assay: Combination cell viability by MTT, MDA-MB-231; format: cell-based; settings: for combination index CI50 / combination index CI75 / combination index CI90 / combination index CI95: 24 hrs
Procedure: To further test if an Hsp70 inhibitor would have synergistic activity with inhibitors of Hsp90 and the proteasome, MDA-MB-231 cells were treated for 24 hrs with combinations of an HSP70 inhibitor and an HSP90 inhibitor and measured cell viability by MTT assays. […] JG98 was also synergistic at ratios of JG98:17DMAG of 1:1 and at ratios of JG98:bortezomib at 100:1.

[1] = target: prokaryotic Hsp70 (DnaK) binding to denatured luciferase (Escherichia coli, UniProt P0A6Y8); assay: Luciferase binding assay; format: biochemical; settings: 50 μM
Chain of prokaryotic Hsp70 (DnaK) binding to denatured luciferase (P0A6Y8 whole entry): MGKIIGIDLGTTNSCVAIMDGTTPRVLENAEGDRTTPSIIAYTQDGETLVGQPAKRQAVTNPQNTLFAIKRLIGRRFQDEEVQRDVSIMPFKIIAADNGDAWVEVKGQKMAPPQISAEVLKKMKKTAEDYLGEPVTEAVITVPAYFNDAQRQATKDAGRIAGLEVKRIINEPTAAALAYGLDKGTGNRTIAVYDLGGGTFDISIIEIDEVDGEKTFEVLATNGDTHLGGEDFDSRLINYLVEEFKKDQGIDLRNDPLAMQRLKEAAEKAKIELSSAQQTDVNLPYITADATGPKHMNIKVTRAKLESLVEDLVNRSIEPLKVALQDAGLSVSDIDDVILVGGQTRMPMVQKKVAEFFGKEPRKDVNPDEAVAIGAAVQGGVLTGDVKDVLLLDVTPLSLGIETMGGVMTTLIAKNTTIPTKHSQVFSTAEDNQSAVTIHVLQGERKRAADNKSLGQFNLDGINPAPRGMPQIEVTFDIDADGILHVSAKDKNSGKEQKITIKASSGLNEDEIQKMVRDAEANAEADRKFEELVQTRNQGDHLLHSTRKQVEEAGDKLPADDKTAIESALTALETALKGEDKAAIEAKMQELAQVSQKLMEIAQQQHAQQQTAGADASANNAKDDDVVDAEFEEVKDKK
Procedure: Next, the effect of chaperone functions by binding of YM-08 to Hsp70 was investigated. […] This profile is shared with other allosteric Hsp70 inhibitors. As another test of chaperone function, the effects of the compounds on the binding of Hsp70 to a misfolded protein were measured. In previous work, MKT-077 stabilized the interaction between prokaryotic Hsp70 (DnaK) and denatured luciferase. Briefly, this assay involves immobilizing unfolded luciferase in microtiter plates and measuring binding to DnaK. […] To explore whether YM-08 might also enhance binding of Hsp70 to a more physiologically relevant substrate, binding of tau to immobilized human Hsc70 was measured.
Binding of prokaryotic Hsp70 (DnaK) to denatured luciferase was measured as previously described, in e.g., Miyata, et al., J. Biomol. Screen, 15:1211-1219 (2010). Briefly, firefly luciferase (0.2 mg/mL) was proteolyzed with trypsin and immobilized in 96-well microtiter plates. After washing, the binding of luciferase to DnaK (500 nM) was measured using an anti-DnaK antibody and HRP secondary antibody. A similar strategy was used to monitor binding of human Hsc70 to tau, as previously described in Thompson, et al., ACS Chem. Biol., 7:1677-1686 (2012).

Compound: CCn1c(=O)/c(=C2\Sc3c(F)cccc3N2C)s/c1=C\c1cccc[n+]1CC
- IC50 (MDA-MB-231; second table): 2.8 ± 0.2 µM
- IC50 (MCF-7; second table): 0.8 ± 0.1 µM
- IC50 (MEF (C57BL/6); second table): 27.1 ± 3 µM

Compound: CCn1c(=O)/c(=C2\Sc3cc(F)ccc3N2C)s/c1=C\c1cccc[n+]1CC
- IC50 (MDA-MB-231; second table): 8.3 ± 1.1 µM
- IC50 (MCF-7; second table): 0.9 ± 0.3 µM
- IC50 (MEF (C57BL/6); second table): > 30 µM

Compound: CCn1c(=O)/c(=C2\Sc3c(cccc3C(F)(F)F)N2C)s/c1=C\c1cccc[n+]1Cc1ccccc1
- IC50 (HeLa): 21.1 ± 3.96 µM
- IC50 (MDA-MB-231): 3.46 ± 0.39 µM
- IC50 (MCF-10A): 2.45 ± 0.26 µM
- IC50 (MCF-7): 2.31 ± 0.43 µM

Compound: COC(=O)Cn1c(=O)/c(=C2\Sc3ccccc3N2C)s/c1=C\c1nccs1
- IC50 (MDA-MB-231; second table): > 30 µM
- IC50 (MEF (C57BL/6); second table): > 50 µM

Compound: CCN1C(=O)/C(=C2\Sc3ccccc3N2C)S/C1=N\c1ccccc1
- IC50 (MDA-MB-231; second table): > 30 µM
- IC50 (MEF (C57BL/6); second table): > 50 µM

Compound: CCn1c(=O)/c(=C2\Sc3cc(Cl)ccc3N2C)s/c1=C\c1scc[n+]1Cc1ccccc1.[Cl-] [JG-98]
- synergy (MDA-MB-231 cells; JG98:17DMAG 1:1): synergistic
- combination index CI50 (MDA-MB-231 cells; JG98:17DMAG (10:1)): 1.09
- combination index CI75 (MDA-MB-231 cells; JG98:17DMAG (10:1)): 0.35
- combination index CI90 (MDA-MB-231 cells; JG98:17DMAG (10:1)): 0.27
- combination index CI95 (MDA-MB-231 cells; JG98:17DMAG (10:1)): 0.2
- synergy (MDA-MB-231 cells; JG98:bortezomib 100:1): synergistic
- combination index CI50 (MDA-MB-231 cells; JG98:bortezomib (1:1)): 0.05
- combination index CI75 (MDA-MB-231 cells; JG98:bortezomib (1:1)): 0.05
- combination index CI90 (MDA-MB-231 cells; JG98:bortezomib (1:1)): < 0.02
- combination index CI95 (MDA-MB-231 cells; JG98:bortezomib (1:1)): < 0.02

Compound: C=CCn1c(=O)/c(=C2\Sc3c(F)cccc3N2C)s/c1=C\c1ccncc1
- IC50 (MDA-MB-231; second table): 3.07 ± 0.73 µM
- IC50 (MEF (C57BL/6); second table): > 50 µM

Compound: COC(=O)Cn1c(=O)/c(=C2\Sc3ccccc3N2C)s/c1=C\c1cccc[n+]1C
- IC50 (MDA-MB-231; second table): 16.5 ± 1.05 µM
- IC50 (MEF (C57BL/6); second table): > 50 µM

Compound: CCN1C(=O)/C(=C2\Sc3cc(C(F)(F)F)ccc3N2C)S/C1=N\c1ccccc1
- IC50 (MDA-MB-231; second table): 16.2 ± 1.12 µM
- IC50 (MEF (C57BL/6); second table): > 50 µM

Compound: CCn1c(=O)/c(=C2\Sc3cccc(F)c3N2C)s/c1=C\c1scc[n+]1Cc1ccccc1 [drawing 56]
- IC50 (HeLa): 2.23 ± 0.28 µM
- IC50 (MDA-MB-231): 0.4 ± 0.03 µM
- IC50 (MCF-10A): 1.07 ± 0.05 µM
- IC50 (MCF-7): 0.96 ± 0.2 µM
- IC50 (MEF (C57BL/6)): 8.29 ± 0.66 µM

Compound: CCn1c(=O)/c(=C2\Sc3ccccc3N2C)s/c1=C\c1cc[n+](C)cc1
- IC50 (MDA-MB-231; second table): 3.01 ± 0.26 µM
- IC50 (MEF (C57BL/6); second table): > 50 µM

Compound: CCn1c(=O)/c(=C2\Sc3c(cccc3C(F)(F)F)N2C)s/c1=C\c1cccc[n+]1Cc1ccc(F)c(F)c1
- IC50 (HeLa): 8.47 ± 0.89 µM
- IC50 (MDA-MB-231): 6.16 ± 1.33 µM
- IC50 (MCF-10A): 4.77 ± 0.48 µM
- IC50 (MCF-7): 5.35 ± 1.54 µM

Compound: CCn1c(=O)/c(=C2\Sc3cccc(F)c3N2C)s/c1=C\c1cccc[n+]1CC
- IC50 (MDA-MB-231; second table): 3.8 ± 0.2 µM
- IC50 (MCF-7; second table): 1 ± 0.3 µM
- IC50 (MEF (C57BL/6); second table): > 30 µM

Compound: CCn1c(=O)/c(=C2\Sc3c(ccc(F)c3F)N2C)s/c1=C\c1cccc[n+]1Cc1ccccc1
- IC50 (HeLa): 6 ± 0.64 µM
- IC50 (MDA-MB-231): 2.64 ± 0.35 µM
- IC50 (MCF-10A): 1.36 ± 0.16 µM
- IC50 (MCF-7): 2.1 ± 0.43 µM

Compound: COC(=O)Cn1c(=O)/c(=C2\Sc3ccccc3N2C)s/c1=C\c1scc[n+]1Cc1ccccc1
- IC50 (MDA-MB-231; second table): 0.87 ± 0.14 µM
- IC50 (MEF (C57BL/6); second table): > 50 µM

Compound: COC(=O)Cn1c(=O)/c(=C2\Sc3ccccc3N2C)s/c1=C\c1ccccn1
- IC50 (MEF (C57BL/6); second table): > 50 µM

Compound: CCn1c(=O)/c(=C2\Sc3cccc(C)c3N2C)s/c1=C\c1scc[n+]1Cc1ccccc1
- IC50 (MDA-MB-231; second table): 0.21 ± 0.04 µM

Compound: CCn1c(=O)/c(=C2\Sc3ccc(Cl)cc3N2C)s/c1=C\c1nccs1
- IC50 (MDA-MB-231; second table): 1.5 ± 0.3 µM

Compound: (E)-3-ethyl-5-(3-methylbenzo[d]thiazol-2(3H)-ylidene)-2-(methylthio)-4-oxo-4,5-dihydrothiazol-3-ium [YM-03]
- activity in luciferase binding assay [1]: reduced activity

Compound: CCN1C(=O)/C(=C2\Sc3cc(F)ccc3N2C)S/C1=N\c1ccccc1
- IC50 (MDA-MB-231; second table): > 30 µM
- IC50 (MEF (C57BL/6); second table): > 50 µM

Compound: CCn1c(=O)/c(=C2\Sc3cccc(Cl)c3N2C)s/c1=C\c1cccc[n+]1Cc1ccccc1
- IC50 (HeLa): 3.7 ± 0.35 µM
- IC50 (MDA-MB-231): 0.72 ± 0.18 µM
- IC50 (MCF-10A): 0.61 ± 0.09 µM
- IC50 (MCF-7): 1.37 ± 0.27 µM
- IC50 (MEF (C57BL/6)): 6.46 ± 0.7 µM
